Here are results for 32 compounds from patent publication US6960574B2, “Antagonists of RF-amide neuropeptides” (University of Florida, priority 2002, dated 2005).

Structures are written as SMILES. Peptide text beside a SMILES is read from it. * marks the point of attachment. Dansyl = CN(C)c1cccc2c(S(=O)(=O)*)cccc12

This experiment concerns receptor labeled by the radioiodinated analogue of 1 (4, [125I]-YLFQPQRF-NH2); neuropeptide FF receptor. The experiment in a line: Competitive radioligand binding against 4 ([125I]Y8F-amide). The settings on record: mixture-based positional scanning; difference from averaged radioligand displacement of whole library (0); about 80 a.u. = 10-fold change in Ki. An excerpt:
Additionally, three-dimensional (3-D) molecular models of the known smaller-size neuropeptide FF antagonists 3 and 3a were constructed and their low-energy conformations were obtained in the AMBER force-field [Weiner, et al., J. Comput. Chem. 1986, 7, […].] by molecular dynamics calculations involving simulated annealing. A semi-empirical quantum chemical method with the PM3 parameterization [Stewart, J. Comput. Chem. 1989, 10, 209-220.] was used for the final geometry optimization. […] At least one of the rings in domain B is aromatic. No similarity between 3 and 3a outside these domains were apparent; therefore, the simultaneous presence of A and B domains in the structure of neuropeptide FF (1) antagonists is critical to the invention. Apparently, structural subunits (domain C) outside domains A and B should function in a cooperative manner in directing the pharmacophores into proper geometric positions when improved binding to the cognate receptor is to be obtained, which is associated with the improvement of the desired pharmacological effect. An approach involving mixture-based synthetic combinatorial libraries and positional scanning [(a) Houghten, et al., J. Med Chem. 1999, 42, 3743-3778.] was adopted in the search for preferred structural motifs in domain C that assist in achieving this objective in this invention. To allow for the use of 3 as a reference in this process, the guadinino group (A) was incorporated as part of an L-2-amino-5-{[amino(imino)methyl]amino}pentanoyl (arginyl, R, Arg) residue and 5-dimethylamino-1-naphthalenesulphonyl (dansyl) was chosen to form B (However, it must be emphasized that both R and dansyl are replaceable with moieties that bestow A and B domain attributes described in the invention).
Upon screening for residues to replace the glutamine of 3, serine (S) was the only building block in this position that increased the displacement of 4 in the radioligand-binding assay. Therefore, motifs present in dansyl-Gly-Ser-Arg-NH2, dansyl-Gly-Gln-Arg-NH2, dansyl-Gln-Ser-Arg-NH2, and dansyl-Gln-Gln-Arg-NH2 were chosen based on their affinity to the cognate receptor for further consideration as primary templates when designing the domain C of the compounds described in the invention herein. […]
For `CSCC[C@H](NS(=O)(=O)c1cccc2c(N(C)C)cccc12)C(=O)N[C@@H](Cc1ccc(O)cc1)C(=O)N[C@@H](CCCNC(=N)N)C(N)=O` [Dansyl-MYR-amide] (Dansyl-Met-Tyr-Arg-NH2), the “Relative Binding Index (RBI)” value was −45 a.u.

In the case of `CN(C)c1cccc2c(S(=O)(=O)N[C@@H](CCCNC(=N)N)C(=O)N[C@@H](Cc3c[nH]cn3)C(=O)N[C@@H](CCCNC(=N)N)C(N)=O)cccc12` [Dansyl-RHR-amide] (Dansyl-Arg-His-Arg-NH2), the “Relative Binding Index (RBI)” value was found to be 1 a.u.

For the compound `C[C@@H](O)[C@H](NS(=O)(=O)c1cccc2c(N(C)C)cccc12)C(=O)N1CCC[C@H]1C(=O)N[C@@H](CCCNC(=N)N)C(N)=O` [Dansyl-TPR-amide] (Dansyl-Thr-Pro-Arg-NH2), the “Relative Binding Index (RBI)” value is −5 a.u.

With `CN(C)c1cccc2c(S(=O)(=O)N[C@@H](Cc3ccc(O)cc3)C(=O)N[C@@H](CCCCN)C(=O)N[C@@H](CCCNC(=N)N)C(N)=O)cccc12` [Dansyl-YKR-amide] (Dansyl-Tyr-Lys-Arg-NH2), the “Relative Binding Index (RBI)” value amounted to 5 a.u.

On to `CN(C)c1cccc2c(S(=O)(=O)N[C@@H](CCCCN)C(=O)N[C@@H](CC(N)=O)C(=O)N[C@@H](CCCNC(=N)N)C(N)=O)cccc12` [Dansyl-KNR-amide] (Dansyl-Lys-Asn-Arg-NH2), for which the “Relative Binding Index (RBI)” value stood at 26 a.u.

In the case of `CC[C@H](C)[C@H](NS(=O)(=O)c1cccc2c(N(C)C)cccc12)C(=O)N[C@H](C(=O)N[C@@H](CCCNC(=N)N)C(N)=O)[C@@H](C)O` [Dansyl-ITR-amide] (Dansyl-Ile-Thr-Arg-NH2), the “Relative Binding Index (RBI)” value is reported as −6 a.u.

With `CC[C@H](C)[C@H](NC(=O)[C@H](CC(=O)O)NS(=O)(=O)c1cccc2c(N(C)C)cccc12)C(=O)N[C@@H](CCCNC(=N)N)C(N)=O` [Dansyl-DIR-amide] (Dansyl-Asp-Ile-Arg-NH2), the “Relative Binding Index (RBI)” value was found to be 1 a.u.

For `CN(C)c1cccc2c(S(=O)(=O)N[C@@H](Cc3c[nH]cn3)C(=O)N[C@@H](CO)C(=O)N[C@@H](CCCNC(=N)N)C(N)=O)cccc12` [Dansyl-HSR-amide] (Dansyl-His-Ser-Arg-NH2), the “Relative Binding Index (RBI)” value came out at 37 a.u.

For `CSCC[C@H](NC(=O)[C@H](CCC(=O)O)NS(=O)(=O)c1cccc2c(N(C)C)cccc12)C(=O)N[C@@H](CCCNC(=N)N)C(N)=O` [Dansyl-EMR-amide] (Dansyl-Glu-Met-Arg-NH2), the “Relative Binding Index (RBI)” value is recorded as 17 a.u.

In the case of `CN(C)c1cccc2c(S(=O)(=O)N[C@@H](CCC(N)=O)C(=O)N[C@@H](CO)C(=O)N[C@@H](CCCNC(=N)N)C(N)=O)cccc12` [Dansyl-QSR-amide, dansyl-Gln-Ser-Arg-NH2] (Dansyl-Gln-Ser-Arg-NH2), the “Relative Binding Index (RBI)” value worked out at 42 a.u.

Turning to `CC(C)C[C@H](NS(=O)(=O)c1cccc2c(N(C)C)cccc12)C(=O)N[C@@H](Cc1ccc(O)cc1)C(=O)N[C@@H](CCCNC(=N)N)C(N)=O` [Dansyl-LYR-amide] (Dansyl-Leu-Tyr-Arg-NH2), the “Relative Binding Index (RBI)” value is reported as −33 a.u.

On to `CN(C)c1cccc2c(S(=O)(=O)N[C@@H](Cc3ccc(O)cc3)C(=O)N[C@@H](Cc3c[nH]c4ccccc34)C(=O)N[C@@H](CCCNC(=N)N)C(N)=O)cccc12` [Dansyl-YWR-amide] (Dansyl-Tyr-Trp-Arg-NH2), for which the “Relative Binding Index (RBI)” value worked out at 16 a.u.

On to `C[C@@H](O)[C@H](NC(=O)[C@H](Cc1c[nH]c2ccccc12)NS(=O)(=O)c1cccc2c(N(C)C)cccc12)C(=O)N[C@@H](CCCNC(=N)N)C(N)=O` [Dansyl-WTR-amide] (Dansyl-Trp-Thr-Arg-NH2), for which the “Relative Binding Index (RBI)” value is recorded as 14 a.u.

Consider `CN(C)c1cccc2c(S(=O)(=O)N[C@@H](CCCNC(=N)N)C(=O)N[C@@H](CC(N)=O)C(=O)N[C@@H](CCCNC(=N)N)C(N)=O)cccc12` [Dansyl-RNR-amide] (Dansyl-Arg-Asn-Arg-NH2), for which the “Relative Binding Index (RBI)” value is reported as 8 a.u.

As to `CN(C)c1cccc2c(S(=O)(=O)N[C@@H](CCC(=O)O)C(=O)N[C@@H](Cc3c[nH]c4ccccc34)C(=O)N[C@@H](CCCNC(=N)N)C(N)=O)cccc12` [Dansyl-EWR-amide] (Dansyl-Glu-Trp-Arg-NH2), the “Relative Binding Index (RBI)” value worked out at 25 a.u.

As for `CCC(C)C(NC(=O)C(Cc1c[nH]c2ccccc12)NS(=O)(=O)c1cccc2c(N(C)C)cccc12)C(=O)NC(CCCNC(=N)N)C(N)=O` (stereo not drawn) [Dansyl-WIR-amide] (Dansyl-Trp-Ile-Arg-NH2; configuration not given here), the “Relative Binding Index (RBI)” value was determined as 15 a.u.

As for `CN(C)c1cccc2c(S(=O)(=O)N[C@@H](Cc3c[nH]cn3)C(=O)NCC(=O)N[C@@H](CCCNC(=N)N)C(N)=O)cccc12` [Dansyl-HGR-amide] (Dansyl-His-Gly-Arg-NH2), the “Relative Binding Index (RBI)” value turned out to be 22 a.u.

In the case of `CN(C)c1cccc2c(S(=O)(=O)N[C@@H](CC(N)=O)C(=O)N[C@@H](Cc3c[nH]c4ccccc34)C(=O)N[C@@H](CCCNC(=N)N)C(N)=O)cccc12` [Dansyl-NWR-amide] (Dansyl-Asn-Trp-Arg-NH2), the “Relative Binding Index (RBI)” value was found to be 22 a.u.

`CN(C)c1cccc2c(S(=O)(=O)N[C@@H](CCCCN)C(=O)N[C@@H](Cc3c[nH]cn3)C(=O)N[C@@H](CCCNC(=N)N)C(N)=O)cccc12` [Dansyl-KHR-amide] (Dansyl-Lys-His-Arg-NH2): the “Relative Binding Index (RBI)” value worked out at 19 a.u.

For `CC[C@H](C)[C@H](NC(=O)[C@H](CC(N)=O)NS(=O)(=O)c1cccc2c(N(C)C)cccc12)C(=O)N[C@@H](CCCNC(=N)N)C(N)=O` [Dansyl-NIR-amide] (Dansyl-Asn-Ile-Arg-NH2), the “Relative Binding Index (RBI)” value amounted to 19 a.u.

With `CC[C@H](C)[C@H](NC(=O)[C@@H]1CCCN1S(=O)(=O)c1cccc2c(N(C)C)cccc12)C(=O)N[C@@H](CCCNC(=N)N)C(N)=O` [Dansyl-PIR-amide] (Dansyl-Pro-Ile-Arg-NH2), the “Relative Binding Index (RBI)” value is recorded as −41 a.u.

For `CCC(C)C(NS(=O)(=O)c1cccc2c(N(C)C)cccc12)C(=O)NC(CCCCN)C(=O)NC(CCCNC(=N)N)C(N)=O` (stereo not drawn) [Dansyl-IKR-amide] (Dansyl-Ile-Lys-Arg-NH2; configuration not given here), the “Relative Binding Index (RBI)” value was −13 a.u.

As for `CC[C@H](C)[C@H](NS(=O)(=O)c1cccc2c(N(C)C)cccc12)C(=O)N[C@@H](CCSC)C(=O)N[C@@H](CCCNC(=N)N)C(N)=O` [Dansyl-IMR-amide] (Dansyl-Ile-Met-Arg-NH2), the “Relative Binding Index (RBI)” value is −11 a.u.

`CC[C@H](C)[C@H](NS(=O)(=O)c1cccc2c(N(C)C)cccc12)C(=O)N[C@H](C(=O)N[C@@H](CCCNC(=N)N)C(N)=O)C(C)C` [Dansyl-IVR-amide] (Dansyl-Ile-Val-Arg-NH2): the “Relative Binding Index (RBI)” value is given as −16 a.u.

Consider `CSCC[C@H](NC(=O)CNS(=O)(=O)c1cccc2c(N(C)C)cccc12)C(=O)N[C@@H](CCCNC(=N)N)C(N)=O` [Dansyl-GMR-amide] (Dansyl-Gly-Met-Arg-NH2), for which the “Relative Binding Index (RBI)” value is 25 a.u.

For `CN(C)c1cccc2c(S(=O)(=O)N[C@@H](CCC(=O)O)C(=O)N[C@@H](CCC(=O)O)C(=O)N[C@@H](CCCNC(=N)N)C(N)=O)cccc12` [Dansyl-EER-amide] (Dansyl-Glu-Glu-Arg-NH2), the “Relative Binding Index (RBI)” value is reported as 17 a.u.

For the compound `CN(C)c1cccc2c(S(=O)(=O)N[C@@H](CCCCN)C(=O)N[C@@H](CCC(=O)O)C(=O)N[C@@H](CCCNC(=N)N)C(N)=O)cccc12` [Dansyl-KER-amide] (Dansyl-Lys-Glu-Arg-NH2), the “Relative Binding Index (RBI)” value was determined as 25 a.u.

With `CN(C)c1cccc2c(S(=O)(=O)N[C@@H](CCC(=O)O)C(=O)N[C@@H](CO)C(=O)N[C@@H](CCCNC(=N)N)C(N)=O)cccc12` [Dansyl-ESR-amide] (Dansyl-Glu-Ser-Arg-NH2), the “Relative Binding Index (RBI)” value turned out to be 37 a.u.

In the case of `C[C@H](NS(=O)(=O)c1cccc2c(N(C)C)cccc12)C(=O)NCC(=O)N[C@@H](CCCNC(=N)N)C(N)=O` [Dansyl-AGR-amide] (Dansyl-Ala-Gly-Arg-NH2), the “Relative Binding Index (RBI)” value was determined as 18 a.u.

Consider `CN(C)c1cccc2c(S(=O)(=O)N[C@@H](Cc3c[nH]cn3)C(=O)N[C@@H](CCC(=O)O)C(=O)N[C@@H](CCCNC(=N)N)C(N)=O)cccc12` [Dansyl-HER-amide] (Dansyl-His-Glu-Arg-NH2), for which the “Relative Binding Index (RBI)” value was found to be 17 a.u.

As for `CC(C)C[C@H](NS(=O)(=O)c1cccc2c(N(C)C)cccc12)C(=O)N[C@@H](CCCCN)C(=O)N[C@@H](CCCNC(=N)N)C(N)=O` [Dansyl-LKR-amide] (Dansyl-Leu-Lys-Arg-NH2), the “Relative Binding Index (RBI)” value is −34 a.u.

For the compound `CC(C)[C@H](NC(=O)[C@H](CC(=O)O)NS(=O)(=O)c1cccc2c(N(C)C)cccc12)C(=O)N[C@@H](CCCNC(=N)N)C(N)=O` [Dansyl-DVR-amide] (Dansyl-Asp-Val-Arg-NH2), the “Relative Binding Index (RBI)” value is listed as −10 a.u.
